Data taken from paper PMC8282797, “Strictly regulated agonist-dependent activation of AMPA-R is the key characteristic of TAK-653 for robust synaptic responses and cognitive improvement” (Scientific Reports, 2021).
Entries after “also recorded” stand apart in the source; their conditions may differ.

Assays:
[1] = tested on: cynomolgus monkeys; assay: Delayed match-to-sample (DMTS) task; format: in vivo, cynomolgus monkey (Macaca fascicularis); settings: 0.06 mg/kg, p.o., 6 h prior to testing
Protocol: DMTS tasks were performed using 4–6 years old male cynomolgus monkeys (Macaca fascicularis) weighing 4–6 kg as previously described, using a Cambridge Neuropsychological Test Automated Battery (CANTAB) system (CeNes, Cambridge, UK). Monkeys were maintained at 80% of free-feeding body weight throughout the experiment. Details are described in the Supplementary Information.
The experiment was performed using 4-6 years old male cynomolgus monkeys (Macaca fascicularis) weighing 4-6 kg. Monkeys were maintained at 80% of free-feeding body weight throughout the experiment. Four monkeys were trained to perform DMTS task using a Cambridge Neuropsychological Test Automated Battery (CANTAB) system (CeNes, Cambridge, UK) (Weed et al., 1999). Briefly, a trial was initiated by presentation of an image of a sample object on the screen. The monkey had to touch this object on the screen within 30 s. Then, the sample object was diminished from the screen, and a variable delay (0, 4, 8, and 16 s) was ensured. After the delay, the sample object was re-presented together with three other objects. The monkey had to choose the sample object from the four objects and a collect choice was reinforced by the food reward. The ITI was 5 s and one session consisted of 96 trials (24 trials of each delay of 0, 4, 8, and 16 s). […] The correct responses were recorded for all trials during test sessions. […]

[2] = tested on: BDNF protein levels; assay: BDNF production in primary neurons; format: cell-based, rat; settings: 24 h
Protocol: BDNF production in primary neurons was measured as previously described. Primary cultures of hippocampal neuronal cells at a density of 5 × 10^4 cells/well plated on poly-L-lysine coated 96-well plates (Sumitomo Bakelite) were treated with compounds in the presence or absence of AMPA (1 μM) and cultured in a humidified CO2 incubator with 5% CO2 at 37 °C for 24 h. The cells were washed once using phosphate buffered saline and were collected using 60 μL of lysis buffer (20 mM Tris-HCl at pH 8.0, 137 mM NaCl, 10% glycerol, 1% NP-40, 1% protease inhibitor cocktail [Sigma-Aldrich, St. Louis, MO]). Concentrations of BDNF protein were measured using BDNF ELISA Kits (Promega, Fitchburg, WI).
Primary cultures of hippocampal neuronal cells were prepared from fetal Sprague-Dawley rats at 19 days of gestation. Rat embryos were decapitated and their whole brains were isolated. Hippocampi were dissected in ice-cold Hanks' Balanced Salt Solutions (HBSS) under a microscope and then dispersed into cells using a neural cell dispersion kit (Sumitomo Bakelite Co., Ltd., Tokyo, Japan). The dissociated cells were suspended in Neurobasal medium containing B27 supplement (Thermo Fisher Scientific Inc.), 2 mM L-glutamine (Lonza, Basel, Switzerland), 100 U/mL penicillin (Lonza), 100 μg/mL streptomycin (Lonza) and 20 μg/mL gentamicin sulfate (Lonza). […]

[3] = biological target: GluA2o LBD (Homo sapiens, UniProt P42262); assay: SPA displacement of [3H]-HBT1 from His-tagged GluA2o LBD; settings: 40 nM [3H]-HBT1, 100 μM glutamate, read-out: IC50, inhibition of binding between [3H]-HBT1 and His-LBD
GluA2o LBD, sequence (P42262 with tags, fused parts or gaps): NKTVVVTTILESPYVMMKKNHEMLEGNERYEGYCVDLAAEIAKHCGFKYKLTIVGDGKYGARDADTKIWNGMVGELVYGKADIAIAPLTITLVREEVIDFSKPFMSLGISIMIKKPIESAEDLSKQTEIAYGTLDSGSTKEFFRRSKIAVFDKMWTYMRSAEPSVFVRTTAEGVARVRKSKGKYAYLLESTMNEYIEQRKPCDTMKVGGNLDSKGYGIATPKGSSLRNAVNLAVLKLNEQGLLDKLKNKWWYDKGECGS
Source text: We previously reported that structural interference at Ser750 in the channel-closed state of GluA2o LBD might be involved in the molecular mechanisms underlying the lower agonistic effect of AMPA-R potentiators with dihydropyridothiadiazine 2,2-dioxide derivatives and discovered TAK-137, 9-(4-phenoxyphenyl)-3,4-dihydropyrido[2,1-c][1,2,4]thiadiazine 2,2-dioxide (Fig. 1A)[16]. […] TAK-653 bound to the intradimer interface formed by the ligand binding core (Fig. 1B). […] Binding affinity of TAK-653 to the GluA2o LBD was measured by a scintillation proximity assay (SPA) using [^3H]-HBT1, a radio-labeled LBD-binding AMPA-R potentiator, and a His-tagged GluA2o LBD protein (His-LBD)[21]. […] Binding of [^3H]-TAK-653 to His-LBD was also measured by SPA.
The SPA assays were performed as previously described, with some modifications. […] Radioactivity derived from the bound radio ligand was measured using a microplate scintillation counter (TopCount NXT, PerkinElmer Inc.).

[4] = tested on: 97 targets; assay: In vitro selectivity profile (Ricerca); settings: 10 μM

CC1=CN2CCS(=O)(=O)N=C2C(c2ccc(OC3CCCCC3)cc2)=N1 [TAK-653, 9-[4-(Cyclohexyloxy)phenyl]-7-methyl-3,4-dihydropyrazino[2,1-c][1,2,4]thiadiazine 2,2-dioxide]
DMTS accuracy at 16-s delay interval [1]: significantly ameliorated; also recorded: significantly increased
BDNF protein levels ([2]; compound alone at 1 μM): slightly increased
BDNF protein levels ([2]; in the presence of AMPA (1 μM)): robustly increased
IC50 [3]: 260 nM
Selectivity against 97 targets [4]: highly selective
